Data: US11083732B2, “Use of negative modulators of GABA receptors containing alpha5 subunits as fast acting antidepressants” (University of Maryland, Baltimore, priority 2014, dated 2021)

Experiments:
[1] = test system: rats subjected to chronic restraint stress; assay: Social interaction test (SIT) after chronic restraint stress (CRS); assay type: in vivo, rat; conditions: MRK-016 3 mg/kg
Description: (§1) MRK-016 rapidly reverses loss of sucrose preference and social interaction behaviors after chronic restraint stress (FIG. 9). […] This persisted for 7 days despite further stress exposure. and in the same animals after an additional week of CRS and 7 days after the injection of MRK-016.
(§2) Chronic restraint stress (CRS). Male Sprague Dawley rats (4-5 weeks-old; Harlan Laboratories) were placed in appropriately sized restraint tubes, highly restricting their movement for periods of four hours in a brightly lit lab, every day for ten days during the light phase of their diurnal cycle (Lim et al., 2012).
Social interaction test (SIT). As described previously (Berton et al., 2006), rats were placed in a plastic enclosure (82×82 cm) with a 5×5 grid of squares (16.4×16.4 cm) visible underneath the clear plastic flooring. A small translucent perforated plastic box (20×16 cm) was placed against the center of one wall of the arena. During the testing conditions white overhead fluorescent lighting was used to illuminate the arena. A video camera positioned 170 cm above the floor of the arena was used to track the movements of the rats during the experiment.
Each test consisted of a “target-absent” trial followed by a “target-present” trial. During testing, an individual test rat was placed in the center of the arena and, after 30s of adaptation, the rat's movements were recorded with the video camera for 2.5 minutes. […]
Results were quantified as the percentage of time spent in the “interaction zone” (the five grid squares immediately surrounding the plastic cage) as measured for both the “target-absent” and “target-present” trials. […]
(§3) Several hedonic behaviors in rodents are sensitive to chronic stress and are restored by chronic, but not acute, administration of SSRIs, providing one means to screen for potential antidepressant compounds. First, it was determined whether L-655,708 would rapidly (<24 hrs) restore normal hedonic behavior following chronic restraint stress (Watanabe et al., 1992; Lim et al., 2012), consistent with the rapid antidepressant-like actions of ketamine (Li et al., 2011). […]

[2] = test system: rats subjected to chronic restraint stress; assay: Sucrose preference test (SPT) after chronic restraint stress (CRS); assay type: in vivo, rat; conditions: MRK-016 3 mg/kg
Description: as §1, §2
Sucrose preference test (SPT). Rats were given a choice between two bottles containing tap water or a 1% sucrose solution (Rygula et al., 2006). Testing was conducted overnight (16 hours), including the full duration of their dark phase. Animals were first trained with both bottles while group-housed. For subsequent tests, including during the baseline period, animals were individually housed. Sucrose preference was calculated as amount of the sucrose solution consumed as a percentage of the total amount of liquid consumed.
Drugs/stats. L-655,708 was purchased from Tocris Bioscience (R&D Systems, Minneapolis, Minn.) and prepared at a concentration of 5 mM in 75% saline/25% DMSO. […] This dose is sufficient to occupy about 70% of forebrain binding sites (Atack et al., 2005)
as §3, with “2011). Baseline measurements were first made of social interaction and sucrose preference, and then 4-5 week old rats were subjected to ten days of CRS.” for “2011).”

[3] = test system: TA-CA1 synapses; assay: Anpirtoline (5-HT1BR agonist) potentiation of TA-CA1 EPSP slope in hippocampal slices; set-up: species or system rat; conditions: slices after CUS
Method: Experiment B. Do alpha5 GABA-NAMs restore 5-HT1BR-mediated potentiation? One can consider whether alpha5 GABA-NAMs reverse another phenotypic alteration of stressed TA-CA 1 synapses: amplification and persistence of responses to the 5-HT1BR agonist anpirtoline (FIG. 3A) (Cai et al., 2013). Slices are prepared from the four groups described in Experiment A. Anpirtoline (501.1M) is bath applied for 60 min, followed by a 90 min washout period. In specific embodiments, anpirtoline potentiation of […], vehicle-injected controls and that injection of alpha5 GABA-NAM […], but has no effect in control rats (see FIG. 3B).

[4] = test system: chronically stressed animals; conditions: Li et al., 2011; cited from earlier work
[5] = test system: depressive symptoms in humans; conditions: acute administration; cited from earlier work

## Cc1cc(-c2nncc3c(C(C)(C)C)c(OCc4ncnn4C)nn23)no1 [MRK-016, 3-tert-Butyl-7-(5-methylisooxazol-3-yl)-2-(1-methyl-1H-1,2,4-triazol-5-ylmethoxy)-pyrazolo[1,5-d]-[1,2,4] triazine]
[1]; CRS, 24 hours after treatment, vs pre-stress
  social interaction scores: not significantly different than the pre-stress condition
[1]; despite further stress exposure
  persistence of effect on social interaction: 7 days
[2]; CRS continued
  persistence of effect on sucrose preference: 7 days
[2]; CRS, 24 hours after treatment, vs baseline
  sucrose preference: not significantly different than the baseline before stress exposure

## Clc1cccc(SC2CCNCC2)n1 [anpirtoline]
[3]
  persistence of potentiation after washout: > 60 min
[3]; vs control slices
  potentiation of TA-CA1 EPSP slope: larger

## CNC1(c2ccccc2Cl)CCCCC1=O (stereo not drawn) [ketamine]
[4]
  time to restoration of sucrose preference and novelty suppressed feeding behaviors: 24 h
[5]
  persistence of antidepressant effects: up to two weeks
  time to improved mood and reduced depressive symptoms: 1 to 2 h
